Assay results taken from EP4603105A1, “PHARMACEUTICAL COMPOSITION CONTAINING CYCLIC COMPOUND HAVING SELECTIVE KRAS INHIBITORY EFFECT AGAINST HRAS AND NRAS” (CHUGAI SEIYAKU KABUSHIKI KAISHA, priority 2022, dated 2024).
Where a SMILES comes first, the peptide text is derived from it. Bridges are numbered along the chain shown (N, C = ends). [ ]: non-standard residue; d: D form. The star is where a group is joined. hPhe(3-Cl-4-CF3) = N[C@@H](CCc1ccc(C(F)(F)F)c(Cl)c1)C(=O)O; NPrPhe(4-CF3) = CCCN[C@@H](Cc1ccc(C(F)(F)F)cc1)C(=O)O; NMeGly(cPent) = CN[C@H](C(=O)O)C1CCCC1; Pro(4,4-F2) = O=C(O)[C@@H]1CC(F)(F)CN1; NMeD = CN[C@@H](CC(=O)O)C(=O)O; NMeL = CN[C@@H](CC(C)C)C(=O)O; Morpholide = C1CN(*)CCO1; Aze = O=C(O)[C@@H]1CCN1; Ac4c = NC1(C(=O)O)CCC1; NEtG = CCNCC(=O)O; Sar = CNCC(=O)O

Columns and labels:
[1] = molecular target: GDP-bound NRAS wild-type protein (Homo sapiens, UniProt P01111); assay: Binding to NRAS by surface plasmon resonance (SPR), KD and KD ratio to KRAS
Sequence of GDP-bound NRAS wild-type protein (P01111 whole entry): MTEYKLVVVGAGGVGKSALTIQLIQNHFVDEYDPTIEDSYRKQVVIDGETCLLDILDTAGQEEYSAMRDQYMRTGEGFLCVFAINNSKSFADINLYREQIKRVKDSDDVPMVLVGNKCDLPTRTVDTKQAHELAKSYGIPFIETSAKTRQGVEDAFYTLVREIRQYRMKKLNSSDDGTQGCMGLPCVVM
Summary of the method: (§1)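 GDP-loaded biotinylated Avi-tag RAS proteins (E. coli-expressed) captured on a Biotin CAPture chip at ~100–300 RU; single-cycle kinetics at 30°C, 100 µL/min, 75 s injections of rising compound concentrations. HBS pH 7.4 running buffer with 1 mM DTT, 10 mM MgCl2, 10 µM GDP, 4% DMSO. KD from 1:1 binding fit.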

[2] = molecular target: HRAS wild-type protein (Homo sapiens, UniProt P01112); assay: Binding to HRAS by surface plasmon resonance (SPR), KD and KD ratio to KRAS
Sequence of HRAS wild-type protein (P01112 whole entry): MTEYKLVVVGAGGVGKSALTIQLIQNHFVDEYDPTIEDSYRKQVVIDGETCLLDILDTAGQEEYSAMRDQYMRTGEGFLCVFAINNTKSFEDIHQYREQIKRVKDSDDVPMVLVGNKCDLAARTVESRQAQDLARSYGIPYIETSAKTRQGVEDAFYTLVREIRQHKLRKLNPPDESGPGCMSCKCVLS
Summary of the method: as §1

[3] = molecular target: GDP-bound KRAS wild-type protein (Homo sapiens, UniProt P01116); assay: Binding to KRAS by surface plasmon resonance (SPR), dissociation constant KD
Sequence of GDP-bound KRAS wild-type protein (P01116 1-188 isoform P01116-2): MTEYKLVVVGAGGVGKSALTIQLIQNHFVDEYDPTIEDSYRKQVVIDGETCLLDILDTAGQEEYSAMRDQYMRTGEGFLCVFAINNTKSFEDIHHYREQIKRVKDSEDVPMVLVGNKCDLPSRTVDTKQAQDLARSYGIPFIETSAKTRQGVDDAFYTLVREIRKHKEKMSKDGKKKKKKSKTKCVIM
Summary of the method: as §1

[4] = system: human lung cancer strain NCI-H441; assay type: cell-based
Summary of the method: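 Readout: […] after the ATP-based reagent. Compound: serial dilutions in dimethyl sulfoxide.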

[5] = ratio of the KD value with respect to GDP-bound NRAS wild-type protein to the KD value with respect to KRAS
[6] = ratio of the KD value with respect to HRAS wild-type protein to the KD value with respect to KRAS
[7] = Single Cycle Kinetics, 1:1 binding model
[8] = ratio of KD value for GDP-bound NRAS wild-type protein to KD value for KRAS (SPR)
[9] = ratio of KD value for HRAS wild-type protein to KD value for KRAS (SPR)
[10] = ratio of KD for GDP-bound NRAS wild-type protein to KD for KRAS
[11] = ratio of KD for HRAS wild-type protein to KD for KRAS

Row | Compound | Kd [3, 7] [nM] | IC50 [4] [nM] | Kd ([3]; 1:1 binding model) [nM] | Kd ([3]; Single Cycle Kinetics) [nM] | NRAS /KRAS [1, 5] | HRAS /KRAS [2, 6] | NRAS /KRAS [1, 8] | HRAS /KRAS [2, 9] | NRAS /KRAS [1, 10] | HRAS /KRAS [2, 11]
1 | CCO[C@@H]1C[C@H]2C(=O)NC3(CCC3)C(=O)N(C)[C@@H](C3CCCC3)C(=O)N(C)[C@H](C(=O)N3CCOCC3)CC(=O)N(C)[C@@H](CC3CC3)C(=O)N[C@@H]([C@@H](C)CC)C(=O)N(C)CC(=O)N(C)[C@H]3C/C=C\CCN(C3=O)[C@@H](Cc3ccc(F)cc3C)C(=O)N(C)CC(=O)N[C@@H](CCc3cc(F)c(C(F)(F)F)c(F)c3)C(=O)N2C1 [PP1495] | 0.55 | 98.7 |  |  |  |  | A (a compound having 10 or more and less than 20 is denoted as A) | B (a compound having 3 or more and less than 10 is denoted as B) |  | 
2 | CCCN1C(=O)CN(C)C(=O)[C@@H]2CCN2C(=O)[C@H]([C@@H](C)CC)NC(=O)[C@H](CC(C)C)N(C)C(=O)C[C@@H](C(=O)N2CCOCC2)NC(=O)[C@H](C2CCCC2)N(C)C(=O)C2(CCC2)NC(=O)[C@@H]2CC(F)(F)CN2C(=O)[C@H](CCc2ccc(C(F)(F)F)c(Cl)c2)NC(=O)CN(C)C(=O)[C@@H]1Cc1ccc(C(F)(F)F)cc1 [PP0340] ([NMeL]I[Aze][Sar][NPrPhe(4-CF3)][Sar][hPhe(3-Cl-4-CF3)][Pro(4,4-F2)][Ac4c][NMeGly(cPent)]D-Morpholide; lactam N-11) |  | 177 | 3.7 |  |  |  |  |  | B (a compound having 3 or more and less than 10 is denoted as B) | B (a compound having 3 or more and less than 10 is denoted as B)
3 | CC[C@H](C)[C@@H]1NC(=O)[C@H](CC(C)C)N(C)C(=O)C[C@@H](C(=O)N2CCOCC2)N(C)C(=O)[C@H](C2CCCC2)N(C)C(=O)C2(CCCC2)NC(=O)[C@@H]2CCCN2C(=O)[C@H](CCc2ccc(C(F)(F)F)c(Cl)c2)NC(=O)CN(C)C(=O)[C@H](Cc2ccc(OC)cc2)N2C/C=C\CC[C@@H](C2=O)N(C)C(=O)CN(C)C1=O [PP0609] | 3.9 | 468 |  |  | B (a compound having 3 or more and less than 10 is denoted as B) | B (a compound having 3 or more and less than 10 is denoted as B) |  |  |  | 
4 | CC[C@H](C)[C@@H]1NC(=O)[C@H](CC(C)C)N(C)C(=O)C[C@@H](C(=O)N(CC)CC)N(C)C(=O)[C@H](C2CCCC2)N(C)C(=O)C2(CCC2)NC(=O)[C@@H]2C[C@@H](C)CN2C(=O)[C@H](CCc2ccc(C(F)(F)F)c(OC)c2)NC(=O)CN(C)C(=O)[C@H](Cc2ccc(C)cc2)N2CC/C=C\C[C@@H](C2=O)N(C)C(=O)CN(C)C1=O [PP1849] | 0.38 | 37.1 |  |  |  |  | A (a compound having 10 or more and less than 20 is denoted as A) | A (a compound having 10 or more and less than 20 is denoted as A) |  | 
5 | CC[C@H](C)[C@@H]1NC(=O)[C@H](CC(C)C)N(C)C(=O)C[C@@H](C(=O)N2CCOCC2)N(C)C(=O)[C@H](C2CCCC2)N(C)C(=O)C2(CCCC2)NC(=O)[C@@H]2CCCN2C(=O)[C@H](CCc2cc(F)c(C(F)(F)F)c(F)c2)NC(=O)CN(C)C(=O)[C@H](Cc2ccc(C(F)(F)F)cc2)N2CCCC[C@@H](C2=O)N(C)C(=O)[C@H](CC)N(C)C1=O [PP0551] | 38 | 401 |  |  | C (A compound having a KD ratio of 0.1 or more and less than 3 is denoted as C) | B (a compound having 3 or more and less than 10 is denoted as B) |  |  |  | 
6 | CC[C@H](C)[C@@H]1NC(=O)[C@H](CC(C)C)N(C)C(=O)C[C@@H](C(=O)N2CCOCC2)N(C)C(=O)[C@H](C2CCCC2)N(C)C(=O)C2(CCC2)NC(=O)[C@@H]2[C@@H](OCC3CCCC3)CCN2C(=O)[C@H](CCc2cc(F)c(C(F)(F)F)c(F)c2)NC(=O)CN(C)C(=O)[C@H](Cc2ccc(C(F)(F)F)cc2)N2CCCCC[C@@H](C2=O)N(C)C(=O)CN(C)C1=O [PP1011] |  | 314 |  | 3.7 |  |  |  |  | A (a compound having 10 or more and less than 20 is denoted as A) | B (a compound having 3 or more and less than 10 is denoted as B)

Stronger by IC50 [4], values ahead:

Row | Kd [3, 7] [nM] | IC50 [4] [nM] | Kd ([3]; 1:1 binding model) [nM] | Kd ([3]; Single Cycle Kinetics) [nM] | Compound | NRAS /KRAS [1, 5] | HRAS /KRAS [2, 6] | NRAS /KRAS [1, 8] | HRAS /KRAS [2, 9] | NRAS /KRAS [1, 10] | HRAS /KRAS [2, 11]
7 | 0.095 | 6.5 |  |  | CC[C@H](C)[C@@H]1NC(=O)[C@H](CC(C)C)N(C)C(=O)C[C@@H](C(=O)N2CCOCC2)N(C)C(=O)[C@H](C2CCCC2)N(C)C(=O)C2(CCCC2)NC(=O)[C@@H]2CCCN2C(=O)[C@H](CCc2ccc(C(F)(F)F)c(Cl)c2)NC(=O)CN(C)C(=O)[C@H](Cc2ccccc2)N2CCCC[C@@H](C2=O)N(C)C(=O)CN(C)C1=O [PP0529] | C (A compound having a KD ratio of 0.1 or more and less than 3 is denoted as C) | B (a compound having 3 or more and less than 10 is denoted as B) |  |  |  | 
8 | 0.41 | 16.2 |  |  | CCCN1C(=O)CN(CC)C(=O)CN(C)C(=O)[C@H]([C@@H](C)CC)NC(=O)[C@H](CC(C)C)N(C)C(=O)C[C@@H](C(=O)N2CCOCC2)N(C)C(=O)[C@H](C2CCCC2)N(C)C(=O)C2(CCC2)NC(=O)[C@@H]2CCCN2C(=O)[C@H](CCc2ccc(C(F)(F)F)c(Cl)c2)NC(=O)CN(C)C(=O)[C@@H]1Cc1ccc(C(F)(F)F)cc1 [PP1948] ([NMeL]I[Sar][NEtG][NPrPhe(4-CF3)][Sar][hPhe(3-Cl-4-CF3)]P[Ac4c][NMeGly(cPent)][NMeD]-Morpholide; lactam N-11) | C (A compound having a KD ratio of 0.1 or more and less than 3 is denoted as C) | C (A compound having a KD ratio of 0.1 or more and less than 3 is denoted as C) |  |  |  | 
9 | 0.14 | 32.1 |  |  | CC[C@@H]1C[C@H]2C(=O)NC3(CCC3)C(=O)N(C)[C@@H](C3CCCC3)C(=O)N(C)[C@H](C(=O)N(C)C)CC(=O)N(C)[C@@H](CC(C)C)C(=O)N[C@@H]([C@@H](C)CC)C(=O)N(C)CC(=O)N(C)[C@H]3C/C=C\CCN(C3=O)[C@@H](Cc3ccc(C)cc3)C(=O)N(C)CC(=O)N[C@@H](CCc3cc(F)c(C(F)(F)F)c(F)c3)C(=O)N2C1 [PP2220] | A (a compound having 10 or more and less than 20 is denoted as A) | A (a compound having 10 or more and less than 20 is denoted as A) |  |  |  | 
10 | 0.21 | 3.7 |  |  | C=CCN1CC(=O)N(C)[C@H]2C/C=C\CCN(C2=O)[C@@H](Cc2ccc(C)cc2)C(=O)N(C)CC(=O)N[C@@H](CCc2ccc(C(F)(F)F)c(OC)c2)C(=O)N2C[C@H](OCC)C[C@H]2C(=O)NC2(CC(C)(C)C2)C(=O)N(C)[C@@H](C2CCCC2)C(=O)N(C)[C@H](C(=O)N(C)C)CC(=O)N(C)[C@@H](CC(C)C)C(=O)N[C@@H]([C@@H](C)CC)C1=O [PP2058] | A (a compound having 10 or more and less than 20 is denoted as A) | A (a compound having 10 or more and less than 20 is denoted as A) |  |  |  | 
11 |  | 26.2 | 0.53 |  | CCO[C@@H]1C[C@H]2C(=O)NC3(CC(C)(C)C3)C(=O)N(C)[C@@H](C3CCCC3)C(=O)N(C)[C@H](C(=O)N(C)CC)CC(=O)N(C)[C@@H](CC(C)C)C(=O)N[C@@H]([C@@H](C)CC)C(=O)N(C)CC(=O)N(C)[C@H]3C/C=C\CCN(C3=O)[C@@H](Cc3ccc(C(F)F)cc3)C(=O)N(C)CC(=O)N[C@@H](CCc3ccc(C4CC4)c(F)c3)C(=O)N2C1 [PP3154] |  |  |  |  | A (a compound having 10 or more and less than 20 is denoted as A) | A (a compound having 10 or more and less than 20 is denoted as A)
